# Measured values from US9943471B2, “Beta-2-adrenergic receptor agonist for improving skin scar colour matching” (UNIVERSITY OF LEICESTER, priority 2013, dated 2018).
# Where two headings read alike, the source gives them in different places.
# What was measured:
# [1] = tested on: melanocytes; conditions: cited from earlier work
# [2] = tested on: full-thickness wounds, Red Duroc pig; experiment: Red Duroc pig wound scar study: scar scale scores; type: in vivo
# Source text: Anatomically and physiologically, porcine skin is very similar to human skin [19]. Wounds in small mammal skin, which is untethered, heal primarily by wound contraction, whereas porcine and human skin wounds close primarily by wound re-epithelialisation. The Red Duroc pig is well established as a reproducible model of fibro proliferative and hypertrophic scar formation. Similar to human hypertrophic scars, Red Duroc pigs heal wounds with an excessive amount of collagen deposition and increased wound contraction. In addition, the wounds heal with hyperpigmentation at the wound margins creating hyperpigmented scars and the scars are raised, similar to human scars. […] A porcine wound scar study was conducted in the Red Duroc pig. 4 rows of 5 (2×2 cm) full-thickness wounds were created, either side of the spine, on the shaved backs of 10 Red Durocs (FIGS. 1, 4). […] Two wounds per animal were biopsied (6 mm punch) at 7, 14, 21, 28 and 42 days post wounding. The remaining 10 wound scars per animal were photographed and harvested at day 56 post-wounding, giving a total of 5 wounds per position, 50 wounds in total for each group. A number of scales have been developed to score the severity of human scars. The Vancouver scar scale (VSS), the Manchester scar scale (MSS) and the patient and observer scar assessment scale (POSAS). We developed our own scale to score the severity of the Red Duroc scars based on the VSS [7] and the MSS [8]. The patient and observer scar assessment scale (POSAS) could not be used as it requires patient involvement. The VSS measures four parameters: pigmentation, vascularity, pliability and height, while the MSS measures colour, contour, distortion and texture. Our scar scale was developed to score a number of scar characteristics including: pigmentation, colour match with surrounding tissue, skin sheen, pliability, texture and height contour.
# [3] = tested on: βARs; design: dose or concentration left out as unconfirmed; conditions: cited from earlier work
# [4] = tested on: full-thickness wounds, Red Duroc pig; experiment: Red Duroc pig wound scar study: scar area and wound area; type: in vivo; design: scar area reduction / scar area smaller than control wounds / wound area smaller than control (less swollen) / wound area larger than control (less contracted): concentration or dose not given beside the values
# Protocol: A porcine wound scar study was conducted in the Red Duroc pig. 4 rows of 5 (2×2 cm) full-thickness wounds were created, either side of the spine, on the shaved backs of 10 Red Durocs (FIGS. 1, 4). […] Two wounds per animal were biopsied (6 mm punch) at 7, 14, 21, 28 and 42 days post wounding. The remaining 10 wound scars per animal were photographed and harvested at day 56 post-wounding, giving a total of 5 wounds per position, 50 wounds in total for each group. The scar closest to the average scar area, at each position, for both control and sal-treated wounds are presented (FIG. 5b). […] Indeed, by day 28 and 42 post-wounding the scar area of the sal-treated wounds was already 34.1% and 37.7% smaller than control wounds (FIG. 6a; ***P<0.001). Wound area was also measured in early time points.
# [5] = tested on: melanoma cells; conditions: cited from earlier work
# [6] = tested on: age spots; conditions: added topically, Chinese females with age spots; cited from earlier work
# [7] = 5 mM in Granugel, 500 μl per wound daily, day 56, vs control
compound,measurement,setting,value
"CNCC(O)c1ccc(O)c(O)c1 (stereo not drawn) [Adrenaline, adrenaline]",melanin production / melanogenesis in melanocytes,[1],increased melanin production
same,melanin production / melanogenesis in melanocytes,[1]; listed as Epinephrine,increases melanin synthesis
NC[C@H](O)c1ccc(O)c(O)c1 [noradrenaline],melanin production / melanogenesis in melanocytes,[1],no effect
CC(C)(C)NCC(O)c1ccc(O)c(CO)c1 (stereo not drawn) [salbutamol],improvement of colour match score,[2]; [7],44%
same,improvement of height contour score,[2]; [7],34%
same,improvement of pigmentation score,[2]; [7],48%
same,improvement of pliability score,[2]; [7],22%
same,improvement of sheen score,[2]; [7],53%
same,improvement of texture score,[2]; [7],22%
same,scar appearance vs control scars,"[2]; day 56 post-wounding, P<0.0001",less hyper-pigmented
same,cAMP levels,"[1]; melanocytes, in association with increased melanogenesis",enhances cAMP levels
same,activation of βARs,[3],activate all βARs
same,scar area reduction,"[4]; 56 days post wounding, vs control",47.1%
same,wound area smaller than control (less swollen),[4]; after 7 days,11%
same,wound area larger than control (less contracted),[4]; after 14 days,23%
same,wound area vs control wounds,[4]; by 28 days,slightly smaller
same,scar area smaller than control wounds,[4]; day 28 post-wounding,34.1%
same,scar area smaller than control wounds,[4]; day 42 post-wounding,37.7%
same,re-epithelialisation rate vs control wounds,[4]; early time points,No significant difference
C=CCCCCCCCCC(=O)N[C@@H](Cc1ccccc1)C(=O)O [undecylenoyl phenylalanine],melanin production,[5],suppressed melanin production
same,skin lightening,[6],skin lightening effect
